Laboratory results: US20240327415A1, “Multicomponent Complexes, Including Salts, Crystalline Forms, and Hydrates and Solvates of ENT1 Inhibitors” (iTeos Belgium SA, priority 2023, published 2024)

Tests used:
ENT1 = biological target: T1, ENT1 (Homo sapiens, UniProt Q99808); experiment: ENT1 activity: intracellular uptake of 5-Ethynyl-Uridine (5EU) in whole blood, CD19 positive cells, flow cytometry; assay type: cell-based; conditions: 5EU 60 min at 37° C.
T1 construct: endogenous in cells; host or cells: CD19-positive cells (B cells) in whole blood from healthy donors
T1 sequence (Q99808 1-456): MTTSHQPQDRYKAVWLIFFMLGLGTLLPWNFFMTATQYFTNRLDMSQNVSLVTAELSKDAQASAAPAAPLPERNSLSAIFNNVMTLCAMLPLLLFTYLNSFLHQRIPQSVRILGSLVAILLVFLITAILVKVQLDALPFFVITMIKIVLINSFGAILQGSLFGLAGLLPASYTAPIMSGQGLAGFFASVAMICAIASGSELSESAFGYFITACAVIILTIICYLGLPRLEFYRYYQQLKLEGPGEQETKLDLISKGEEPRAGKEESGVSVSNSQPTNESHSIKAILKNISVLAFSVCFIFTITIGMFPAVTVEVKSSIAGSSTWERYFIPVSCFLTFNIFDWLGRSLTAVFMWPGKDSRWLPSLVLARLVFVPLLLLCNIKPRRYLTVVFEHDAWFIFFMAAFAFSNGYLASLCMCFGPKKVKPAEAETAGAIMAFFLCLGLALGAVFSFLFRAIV
Procedure: Example 20-ENT1 Activity of Crystalline Form 2 Compound 1 di(hydrogen sulfate) trihydrate compared to Compound 1 (free base)-Initial and after Six-Month Storage: (1) Initial time: Whole blood from 8 healthy donors was incubated with 5-Ethynyl-Uridine (5EU, CAS #: 69075-42-9, Jena Bioscience) for 60 min at 37° C., in the absence or presence of freshly suspended 1 μM Compound 1 (free base) or 1 μM Form 2 Compound 1 di(hydrogen sulfate) trihydrate. Intracellular uptake of 5EU through ENT1 transporters was assessed by standard flow cytometry and ENT1 activity was determined.
In FIG. 101, the data are expressed as % of ENT1 activity in untreated CD19 cells, arbitrary set at 100%, and are the means±SD of three independent experiments. Statistical analysis was performed using one-way analysis of variance (ANOVA) followed by Tukey's post hoc analysis with Prism 10.1.2 software (GraphPad Software). *: p<0.0001 vs. untreated B cells; ns: non-significant.
(2) Six months: Compound stability was evaluated on suspended solutions of Compound 1 (free base) or Form 2 Compound 1 di(hydrogen sulfate) trihydrate that were stored at −20° C. for 6 months. On the day of the experiment, whole blood from 3 healthy donors was incubated with 5-Ethynyl-Uridine (5EU, CAS #: 69075-42-9, Jena Bioscience) for 60 min at 37° C., in the absence or presence of either 1 μM Compound 1 (free base) or 1 μM Form 2 Compound 1 di(hydrogen sulfate) trihydrate of 6-month-old solutions. Intracellular uptake of 5EU through ENT1 transporters was assessed by standard flow cytometry and ENT1 activity was determined.
In FIG. 102, the data are expressed as % of ENT1 activity in untreated CD19 cells, arbitrary set at 100%, and are the means±SD. Statistical analysis was performed using two-way analysis of variance (ANOVA) with Prism 10.1.2 software (GraphPad Software). *: p<0.05 vs. untreated B cells; **: p<0.01 vs. untreated B cells; ns: non-significant.

[1] = thermodynamic solubility in 8 aqueous media (Example 19); assay type: physicochemical; conditions: for solubility in aqueous media: 24 hours at 37° C.
Procedure: UPLC System—UPLC: ThermoFisher Vanquish, Detector 1: UV detector set at 266 nm
UPLC Conditions— • Auto sampler temp.: RT • Column: Agilent Eclipse Plus C18 HD (50×2.1 mm; 1.8 μm) • Column temp: 40° C. • Gradient: Mobile phase A: 10 mM ammonium acetate in water • Mobile phase B: Acetonitrile • Flow: 0.6 mL/min • Gradient:
• Concentration: ca. 1.0 mg/mL • Solvent: ACN/water 50:50 • Injection volume: 1 μl • Retention time: 2.9 min
Example 19-Solubility of Crystalline Form 2 Compound 1 di(hydrogen sulfate) trihydrate: The thermodynamic solubility of crystalline Form 2 Compound 1 di(hydrogen sulfate) trihydrate was determined in 8 aqueous media (0.1M HCl, Phthalate buffer pH 3, acetate buffer pH 4.2, phosphate buffer pH 7, phosphate buffer pH 7.4, alkaline borate buffer pH 9.0, purified water EP/USP and phosphate water pH 12). Buffer solutions were prepared according to the United States Pharmacopeia USP 43 with modified buffer strength. Suspensions were prepared by addition of a single aliquot of the aqueous medium to the crystalline Form 2 Compound 1 di(hydrogen sulfate) trihydrate. The pH was titrated to the targeted pH with 1M NaOH. After incubation for 24 hours at 37° C., the pH was measured, and the mother liquors were filtered and analyzed by UPLC to determine the concentration of the free base. The residual solids after the solubility determination were ambient- and vacuum dried and analyzed by HT-XRPD.

[2] = pH solubility studies in buffers and biorelevant media (Example 16); assay type: physicochemical; parameters: key: M4: Crystalline Form 4 mono(hydrogen sulfate); Crystalline Form 2 di(hydrogen sulfate) trihydrate; Amorphous; conditions: pH 6.8 (Phosphate), 24 h
Procedure: Example 16—pH Solubility Studies—(1) Crystalline Form 2 Compound 1 di(hydrogen sulfate) trihydrate, (2) Crystalline Form 3 Compound 1 di(hydrogen sulfate), and (3) Crystalline Form 4 Compound 1 mono(hydrogen sulfate): pH solubility studies were carried out on the prepared crystalline Form 2 Compound 1 di(hydrogen sulfate) trihydrate, crystalline Form 3 Compound 1 di(hydrogen sulfate) and crystalline Form 4 Compound 1 mono(hydrogen sulfate) in the following media: (1) HCl/KCl, pH 1.2; (2) Acetate, pH 4.5; (3) Phosphate, pH 6.8; (4) FaSSIF; (5) FeSSIF; and (6) FaSSGF. Slurries of the hydrogen sulfate forms were prepared in the appropriate medium and stirred at 25° C. For the experiments in the buffer media, the pH of the slurry samples was measured and adjusted as required after 1 hour and 23 hours of the slurrying. Additional solid was added where dissolution was observed post-adjustment. The pH of the samples in the biorelevant media was measured at the 23 hour timepoint. No pH adjustment was made for the biorelevant media. After a total of 24 hours of slurrying, the mother liquors were extracted via centrifugation, and the concentrations and solution purity were determined by HPLC. The residual solids were isolated and analyzed by XRPD and are shown in FIG. 77, FIG. 78, and FIG. 79. The assessment was repeated for some of the samples, where required.

decrease of ENT1 activity compared to untreated CD19 positive cells (ENT1; 1 μM of solutions stored at −20° C. for 6 months, whole blood from 3 healthy donors): 30.4%
decrease of ENT1 activity compared to untreated CD19 positive cells (ENT1; 1 μM, freshly suspended, whole blood from 8 healthy donors): 43.9%
solubility compared with the free base [1]: more soluble than the free base
solubility in aqueous media ([1]; high pH (12.0)): very slightly soluble
solubility in aqueous media ([1]; low pH values (<3.0)): freely soluble
solubility in aqueous media ([1]; pH 4.2): soluble
solubility in aqueous media ([1]; pH 7.0): slightly soluble
XRPD of residual solids ([2]; attempt 1, 25° C.): A
XRPD of residual solids ([2]; attempt 2, 25° C.): A
SMILES: CCCN1CCNCCCNC(=O)c2cc(OC)c(OC)c(c2)OCCC[C@@H](OC(=O)c2cc(OC)c(OC)c(OC)c2)CC1
